These results are taken from patent US8674172B2, “Prostate cancer cell lines and their use in screening method” (Institut Gustave Roussy, priority 2009, dated 2014).

Assay type in all cases: cell-based, human
For assay [1], the system named is IGR-CaP1 cells. As to the kind of experiment: Hormone-dependent growth assay (WST1 cell survival). Conditions: 10^-9M DHT for 72 hours, phenol red free medium with charcoal-stripped serum. How it is done: (§1) The cell growth kinetic was determined by counting the viable cell number at regular intervals. Cells were seeded in triplicate at 4000 cells/well in 12 well plates in normal culture medium or in medium containing 10% of charcoal-stripped serum. Each day, cells were colored with trypan blue and counted. The doubling-time was calculated from regression equation of the curve. For the hormone-dependent growth assay, cells were seeded at 10 000 cells/well in 96 well plates. After 24 h, the culture medium was replaced with medium without phenol red containing 10% of charcoal-stripped serum and the DHT was added or not at the final concentration of 10^−9M. The medium was replaced each day. After 72 hours, cell survival was measured with the WST1 test according the manufacturer's procedures.

The test system of a further assay is LNCaP cells. The assay is described as above. The settings on record: 10^-9M DHT for 72 hours, phenol red free medium with charcoal-stripped serum. How it is done:
as §1

For the next assay, the system named is PC3 cells. The assay is described as above. The settings on record: 10^-9M DHT for 72 hours, phenol red free medium with charcoal-stripped serum. How it is done: as §1
For another assay, the system named is IGR-CaP1-R100 cell line. Put plainly: Resistance of the cell line to a cytotoxic drug.
Assay [2] deals with IGR-CaP1 cells. As to the kind of experiment: Cell cycle analysis by flow cytometry after propidium iodide staining. Conditions: sensitive IGR-CaP1 cells, 100 nM docetaxel for 48 h. How it is done:
(§2) Freshly plated IGR-CaP1 and IGR-CaP1-R100 cells were incubated for 48 h in complete medium containing or not 100 nM of docetaxel. Cell cycle distribution was studied on 70% cold ethanol-fixed cells, by propidium iodide staining (50 μg in PBS) and RNAse treatment (20 μg) followed by flow cytometry analysis (FACScalibur Becton-Dickinson).
(A flow cytometer gives signals particle by particle.)

The test system of another assay is IGR-CaP1-R100 cells. The description is as above. Conditions: IGR-CaP1-R100 cells resistant to 100 nM docetaxel, 100 nM docetaxel for 48 h. How it is done:
as §2

Entries after “also recorded” stand apart in the source; their conditions may differ.

Take `C[C@]12CCC(=O)C[C@@H]1CC[C@@H]1[C@@H]2CC[C@]2(C)[C@@H](O)CC[C@@H]12` [DHT]: the “Cellular growth in the presence of androgen” value in the assay on IGR-CaP1 cells [1] is “did not affect the cellular growth”; in the assay on LNCaP cells, “increased”; in the assay on PC3 cells, “did not affect the cellular growth”.
As for `N.N.[Cl][Pt][Cl]` [cisplatin], in the assay on IGR-CaP1-R100 cell line, the “Resistance of the cell line to the drug” value is “resistant”.
For `CC(=O)O[C@@]12CO[C@@H]1C[C@H](O)[C@@]1(C)C(=O)[C@H](O)C3=C(C)[C@@H](OC(=O)[C@H](O)[C@@H](NC(=O)OC(C)(C)C)c4ccccc4)C[C@@](O)([C@@H](OC(=O)c4ccccc4)[C@H]21)C3(C)C` [docetaxel], the figures for the “Cell cycle distribution (block in G2-M phase)” value in the assay with IGR-CaP1 cells [2] and with IGR-CaP1-R100 cells were “blocked in G2-M phase” and “normally cycle; also recorded: not blocked in G2-M phase”, respectively.
